Eight substances from patent publication US20230400471A1, “SYSTEMS, COMPOSITIONS AND METHODS OF DETERMINING VIABILITY OF EMBRYOS USING THE SAME” (BioIncept, LLC, priority 2020, published 2023) can be followed below.

One assay concerns rabbit anti-PIF polyclonal antibody. The experiment in a line: PIF colorimetric ELISA using rabbit polyclonal antibody, epitope mapping with PIF peptides of various length. Type of assay: binding. Conditions: Table 3, spike concentration not given. The protocol: (§1) To study PIF peptide and its derivatives of different length for binding to rabbit anti-PIF monoclonal antibody and rabbit anti-PIF polyclonal antibody, PIF peptides of various lengths as listed in Table 2 was synthesized, reconstituted in PBS and two different concentrations were tested by respective colorimetric ELISA following standard protocol. The standards were run in duplicate and the samples were run in triplicate and repeated three times.
On the technique in general: An ELISA detects its analyte on a solid surface through an enzyme-linked reagent.
Regarding MVRIKPGSANKPSDD [Clone P1-15], the “recovery by PIF colorimetric ELISA using rabbit polyclonal antibody” value worked out at 100%.
“P1-13: PIF peptide, amino acid locations 1-13 (M V R I K P G S A N K P S) (MVRIKPGSANKPS) [Clone P1-13]”: the “recovery by PIF colorimetric ELISA using rabbit polyclonal antibody” value is given as “about 40%”.
On the same count and under the same terms, the entry for “P1-14: PIF peptide, amino acid locations 1-14 (M V R I K P G S A N K P S D) (MVRIKPGSANKPSD) [Clone P1-14]” is “about 40%”.

Staying with this assay, now noted: spike concentration 100 ng/ml; representative value of three repeats.
For the substance “P8-15: PIF peptide, amino acid locations 8-15 (S A N K P S D D) (SANKPSDD) [Clone P8-15]”, the “% recovery by Rabbit Polyclonal Antibody” value was 0%.
Same read-out and setting: the figure for “P1-13: PIF peptide, amino acid locations 1-13 (M V R I K P G S A N K P S) (MVRIKPGSANKPS) [Clone P1-13]” is 49.8%.
Still for that read-out and setting: the figure for “P1-7: PIF peptide, amino acid locations 1-7 (M V R I K P G) (MVRIKPG) [Clone P1-7]” is 0%; for “P1-14: PIF peptide, amino acid locations 1-14 (M V R I K P G S A N K P S D) (MVRIKPGSANKPSD) [Clone P1-14]” it is 44.6%.
Still for that read-out and setting: the figure for “P10-15: PIF peptide, amino acid locations 10-15 (N K P S D D) (NKPSDD) [Clone P10-15]” is 0%.
Turning to “P5-10: PIF peptide, amino acid locations 5-10 (K P G S A N) (KPGSAN) [Clone P5-10]”, the “% recovery by Rabbit Polyclonal Antibody” value stood at 0%.
Regarding “P8-13: PIF peptide, amino acid locations 8-13 (S A N K P S) (SANKPS) [Clone P8-13]”, the “% recovery by Rabbit Polyclonal Antibody” value is given as 0%.

The same assay, now with this note: spike concentration 200 ng/ml; representative value of three repeats.
Take “P8-15: PIF peptide, amino acid locations 8-15 (S A N K P S D D) (SANKPSDD) [Clone P8-15]”: the “% recovery by Rabbit Polyclonal Antibody” value came to 0%.
Regarding “P1-13: PIF peptide, amino acid locations 1-13 (M V R I K P G S A N K P S) (MVRIKPGSANKPS) [Clone P1-13]”, the “% recovery by Rabbit Polyclonal Antibody” value is 31.1%.
For “P1-7: PIF peptide, amino acid locations 1-7 (M V R I K P G) (MVRIKPG) [Clone P1-7]”, the “% recovery by Rabbit Polyclonal Antibody” value is 0%.
As to “P1-14: PIF peptide, amino acid locations 1-14 (M V R I K P G S A N K P S D) (MVRIKPGSANKPSD) [Clone P1-14]”, the “% recovery by Rabbit Polyclonal Antibody” value came to 30.0%.
Same read-out and setting: the figure for “P10-15: PIF peptide, amino acid locations 10-15 (N K P S D D) (NKPSDD) [Clone P10-15]” is 0%.
Same read-out and setting: the figure for “P5-10: PIF peptide, amino acid locations 5-10 (K P G S A N) (KPGSAN) [Clone P5-10]” is 0%; for “P8-13: PIF peptide, amino acid locations 8-13 (S A N K P S) (SANKPS) [Clone P8-13]” it is 0%.

Staying with this assay, now noted: spike concentration 500 ng/ml; representative value of three repeats.
On to MVRIKPGSANKPSDD [Clone P1-15], for which the “% recovery by Rabbit Polyclonal Antibody” value is 115.0%.

The same assay, now with this note: spike concentration 1000 ng/ml; representative value of three repeats.
As to MVRIKPGSANKPSDD [Clone P1-15], the “% recovery by Rabbit Polyclonal Antibody” value was found to be 101.4%.

For another assay, the system named is rabbit anti-PIF monoclonal antibody. The experiment in a line: PIF colorimetric ELISA using rabbit anti-PIF monoclonal antibody, epitope mapping with PIF peptides of various length. Type of assay: binding. Conditions: Table 3, spike concentration not given. The protocol:
as §1
Regarding MVRIKPGSANKPSDD [Clone P1-15], the “recovery by PIF colorimetric ELISA using rabbit anti-PIF monoclonal antibody” value amounted to 100%.
The same measure, in the same setting: as for “P1-14: PIF peptide, amino acid locations 1-14 (M V R I K P G S A N K P S D) (MVRIKPGSANKPSD) [Clone P1-14]”, the entry is “about 3.8%”.

The same assay, now with this note: spike concentration 100 ng/ml; representative value of three repeats.
Take “P8-15: PIF peptide, amino acid locations 8-15 (S A N K P S D D) (SANKPSDD) [Clone P8-15]”: the “% Recovery by Rabbit Monoclonal Antibody” value was 0%.
Consider “P1-13: PIF peptide, amino acid locations 1-13 (M V R I K P G S A N K P S) (MVRIKPGSANKPS) [Clone P1-13]”, for which the “% Recovery by Rabbit Monoclonal Antibody” value is recorded as 0%.
Regarding “P1-7: PIF peptide, amino acid locations 1-7 (M V R I K P G) (MVRIKPG) [Clone P1-7]”, the “% Recovery by Rabbit Monoclonal Antibody” value was 0%.
The same measure, in the same setting: the figure for “P1-14: PIF peptide, amino acid locations 1-14 (M V R I K P G S A N K P S D) (MVRIKPGSANKPSD) [Clone P1-14]” is 3.8%; for “P10-15: PIF peptide, amino acid locations 10-15 (N K P S D D) (NKPSDD) [Clone P10-15]” it is 0%.
Regarding “P5-10: PIF peptide, amino acid locations 5-10 (K P G S A N) (KPGSAN) [Clone P5-10]”, the “% Recovery by Rabbit Monoclonal Antibody” value is 0%.
Same read-out and setting: as for “P8-13: PIF peptide, amino acid locations 8-13 (S A N K P S) (SANKPS) [Clone P8-13]”, the figure is 0%.

The same assay, now with this note: spike concentration 200 ng/ml; representative value of three repeats.
On to “P8-15: PIF peptide, amino acid locations 8-15 (S A N K P S D D) (SANKPSDD) [Clone P8-15]”, for which the “% Recovery by Rabbit Monoclonal Antibody” value is reported as 0%.
Still for that read-out and setting: as for “P1-13: PIF peptide, amino acid locations 1-13 (M V R I K P G S A N K P S) (MVRIKPGSANKPS) [Clone P1-13]”, the figure is 0%.
Consider “P1-7: PIF peptide, amino acid locations 1-7 (M V R I K P G) (MVRIKPG) [Clone P1-7]”, for which the “% Recovery by Rabbit Monoclonal Antibody” value is listed as 0%.
Same read-out and setting: the figure for “P1-14: PIF peptide, amino acid locations 1-14 (M V R I K P G S A N K P S D) (MVRIKPGSANKPSD) [Clone P1-14]” is 3.8%.
The same measure, in the same setting: the figure for “P10-15: PIF peptide, amino acid locations 10-15 (N K P S D D) (NKPSDD) [Clone P10-15]” is 0%.
Same read-out and setting: as for “P5-10: PIF peptide, amino acid locations 5-10 (K P G S A N) (KPGSAN) [Clone P5-10]”, the figure is 0%.
Turning to “P8-13: PIF peptide, amino acid locations 8-13 (S A N K P S) (SANKPS) [Clone P8-13]”, the “% Recovery by Rabbit Monoclonal Antibody” value is given as 0%.

The assay is the same for the next values; noted with them: spike concentration 500 ng/ml; representative value of three repeats.
For the substance MVRIKPGSANKPSDD [Clone P1-15], the “% Recovery by Rabbit Monoclonal Antibody” value is recorded as 100.0%.

The assay is the same for the next values; noted with them: spike concentration 1000 ng/ml; representative value of three repeats.
On to MVRIKPGSANKPSDD [Clone P1-15], for which the “% Recovery by Rabbit Monoclonal Antibody” value is 100.0%.
